In patent EP4671240A1, “SALT CONTAINING AROMATIC RING DERIVATIVE ANTAGONIST, PREPARATION METHOD THEREFOR, AND APPLICATION THEREOF” (Jiangsu Hansoh Pharmaceutical Group Co., Ltd., priority 2023, dated 2024):

Target: T1, AT1 receptors (Homo sapiens, UniProt P30556)
T1 construct: host or cells: HEK293
T1 sequence (P30556 1-359): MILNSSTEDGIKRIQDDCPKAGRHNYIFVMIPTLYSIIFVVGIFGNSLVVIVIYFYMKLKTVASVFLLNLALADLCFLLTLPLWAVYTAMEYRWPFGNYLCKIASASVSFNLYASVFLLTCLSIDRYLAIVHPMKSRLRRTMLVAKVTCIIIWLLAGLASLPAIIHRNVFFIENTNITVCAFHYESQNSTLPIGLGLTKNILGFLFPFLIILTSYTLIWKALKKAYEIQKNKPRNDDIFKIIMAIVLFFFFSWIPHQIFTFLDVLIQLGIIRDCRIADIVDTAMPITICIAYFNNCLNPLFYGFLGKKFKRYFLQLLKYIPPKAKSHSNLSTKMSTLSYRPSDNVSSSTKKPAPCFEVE
Experiment: effect on calcium current in cells stably expressing AT1 receptors (HEK293-AT1, FLIPR, antagonist)
Assay type: cell-based
Conditions: 11 concentration points 10 uM to 0.17 nM
From the text: Test example 1. Determination of the effect of the compounds of the present invention on calcium current in cells stably expressing AT1 receptors 1. Experimental objective: To test the antagonistic effect of compounds on HEK293-AT1 cell activity 2. Experimental instruments and reagents: 2.1 Instruments: • 384-well assay plate (Corning: 3764); • 384-well Echo compound plate (Labcyte: LP-0200); • 384-well compound plate (PE: 6008590); • Bravo Tip (Agilent: 10734-202); • FLIPR Tip (Molecular Device: 9000-0764); • Plate reader FLIPR Tetra (Molecular Device); • Pipetting workstation Bravo (Agilent); • ECHO 550 (LABCYTE); • Liquid injector Multidrop Combi (ThermoFisher). […] Experimental data processing method: FLIPR Tetra was used to read and collect the fluorescence signal value (RFU). The maximum RFU value was used to calculate the percent activation data based on the readings of the Low control (DMSO control) and High control (100 nM positive compound) experimental groups {% activation rate = (RFUsample - RFUlow control) / (RFUhigh control - RFUlow control)×100}. […]

SMILES	IC50 [nM]
CCCCC1=NC2(CCCC2)C(=O)N1Cc1ccc(-c2ccccc2S(=O)(=O)Nc2noc(C)c2Cl)c(COCC)c1 [Example 8, 2-[4-[(2-Butyl-4-oxo-1,3-diazaspiro[4.4]non-1-en-3-yl)methyl]-2-(ethoxymethyl)phenyl]-N-(4-chloro-5-methyl-isoxazol-3-yl)benzenesulfonamide]	3.2
[2H]C([2H])(c1ccc(-c2ccccc2S(=O)(=O)Nc2noc(C)c2Cl)c(COCC)c1)N1C(=O)C2(CCCC2)N=C1CCCC [Example 2, 4'-((2-Butyl-4-oxo-1,3-diazaspiro[4.4]non-1-en-3-yl)methyl-d2)-N-(4-chloro-5-methylisoxazol-3-yl)-2'-(ethoxymethyl)-[1,1'-biphenyl]-2-sulfonamide]	6.2
